# *1 amine or outer side, *2 acyl side, *3 side chain or, on linkers, in order; H or OH if unused. Where a SMILES comes first, the peptide text is derived from it. Where no end group is shown, it is not given here. [ ]: non-standard residue; d: D form. The star is where a group is joined. mXylylene = c1cc(C[*:1])cc(C[*:2])c1; oXylylene = c1ccc(C[*:2])c(C[*:1])c1; Hyp = O=C(O)[C@@H]1C[C@@H](O)CN1; Chg = N[C@H](C(=O)O)C1CCCCC1; Tle = CC(C)(C)[C@H](N)C(=O)O; Pip = O=C(O)[C@@H]1CCCCN1; Nva = CCC[C@H](N)C(=O)O; Abu = CC[C@H](N)C(=O)O; Meb = Cc1ccc(C*)cc1
# Biological target: T1, recombinant HCV NS3 protease type 1b (Hepatitis C virus genotype 1b, UniProt P26663)
# T1 construct: recombinant HCV NS3 protease (amino acid 1027 to 1206) was cloned in the pET11d bacterial expression vector; made in house; host or cells: E. coli BL21(DE3)pLysS
# T1 sequence (P26663 1027-1206): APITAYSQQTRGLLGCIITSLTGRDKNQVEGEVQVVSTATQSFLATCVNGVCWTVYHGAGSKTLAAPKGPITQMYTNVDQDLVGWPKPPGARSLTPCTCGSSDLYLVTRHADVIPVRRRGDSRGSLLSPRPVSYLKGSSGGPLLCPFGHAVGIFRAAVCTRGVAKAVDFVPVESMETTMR
# Test: Recombinant HCV NS3 protease radiometric assay
# Format: biochemical, HCV genotype 1b
# Text: Cloning, Expression and Purification of the Recombinant HCV NS3 Protease type 1b.
# Serum from an HCV-infected patient was obtained through an external collaboration (Bernard Willems MD, Hôpital St-Luc. Montréal. Canada and Dr. Donald Murphy, Laboratoire de Santé Publique du Québec, Ste-Anne de Bellevue, Canada). An engineered full-length cDNA template of the HCV genome was constructed from DNA fragments obtained by reverse transcription-PCR (RT-PCR) of serum RNA and using specific primers selected on the basis of homology between other genotype 1b strains. From the determination of the entire genomic sequence, a genotype 1b was assigned to the HCV isolate according to the classification of Simmonds et al. (J. Clin. Microbiol., (1993), 31, p.1493-1503). […] A DNA fragment encoding the polyprotein precursor (NS3/NS4A/NS4B/NS5A/NS5B) was generated by PCR and introduced into eukaryotic expression vectors. […] The mature NS3 protein was not observed with expression of a polyprotein precursor containing the mutation S1165A, which inactivates the NS3 protease, confirming the functionality of the HCV NS3 protease.
# The DNA fragment encoding the recombinant HCV NS3 protease (amino acid 1027 to 1206) was cloned in the pET11d bacterial expression vector. The NS3 protease expression in E. coli BL21(DE3)pLysS was induced by incubation with 1 mM IPTG for 3 h at 22° C. A typical fermentation (18 L) yielded approximately 100 g of wet cell paste. The cells were resuspended in lysis buffer (3.0 mL/g) consisting of 25 mM sodium phosphate, pH 7.5, 10% glycerol (v/v), 1 mM EDTA, 0.01% NP-40 and stored at −80° C. Cells were thawed and homogenized following the addition of 5 mM DTT. Magnesium chloride and DNase were then added to the homogenate at final concentrations of 20 mM and 20 μg/mL respectively. After a 25 min incubation at 4° C., the homogenate was sonicated and centrifuged at 15000×g for 30 min at 4° C. The pH of the supernatant was then adjusted to 6.5 using a 1 M sodium phosphate solution.
# An additional gel filtration chromatography step was added to the 2 step purification procedure described in WO 95/22985 (incorporated herein by reference). Briefly, the supernatant from the bacterial extract was loaded on a SP HiTrap column (Pharmacia) previously equilibrated at a flow rate of 2 mL/min in buffer A (50 mM sodium phosphate. pH 6.5, […], 1 mM EDTA, 5 mM DTT, 0.01% NP-40). The column was then washed with buffer A containing 0.15 M NaCl and the protease eluted by applying 10 column volumes of a linear 0.15 to 0.3 M NaCl gradient. NS3 protease-containing fractions were pooled and diluted to a final NaCl concentration of 0.1 M. The enzyme was further purified on a HiTrap Heparin column (Pharmacia) equilibrated in buffer B (25 mM sodium phosphate, pH 7.5, 10% glycerol, 5 mM DTT, 0.01% NP-40). The sample was loaded at a flow rate of 3 mL/min. The column was then washed with buffer B containing 0.15 M NaCl at a flow rate of 1.5 mL/min. Two step washes were performed in the presence of buffer B containing 0.3 or 1 M NaCl. The protease was recovered in the 0.3M NaCl wash, diluted 3-fold with buffer B, reapplied on the HiTrap Heparin column and eluted with buffer B containing 0.4 M NaCl. Finally, the NS3 protease-containing fractions were applied on a Superdex 75 HiLoad 16/60 column (Pharmacia) equilibrated in buffer B containing 0.3 M NaCl. The purity of the HCV NS3 protease obtained from the pooled tractions was judged to be greater than 95% by SDS-PAGE followed by densitometry analysis.
# The enzyme was stored at −80° C. and was thawed on ice and diluted just prior to use.
# Recombinant HCV NS3 Protease Radiometric Assay
# The substrate used for the HCV NS3 protease radiometric assay, DDIVPC-SMSYTW [SEQ. ID NO. 2], is cleaved between the cysteine and the serine residues by the enzyme. The sequence DDIVPC-SMSYTW [SEQ. ID NO. 2] corresponds to the NS5A/NS5B natural cleavage site in which the cysteine residue in P2 has been substituted for a proline. […]
row,Compound,IC50
1,CCC[C@H](NC(=O)[C@@H]1CCCCN1C(=O)[C@@H](NC(=O)[C@@H](NC(=O)[C@H](CC(=O)O)NC(=O)[C@H](CC(=O)O)NC(C)=O)[C@@H](C)CC)C(C)C)C(=O)O [compound 127] (Ac-DDIV[Pip][Nva]-OH; C-terminus assumed),605 µM
2,Ac-DDIVFC [compound 117],25 µM
3,Ac-DDLVPC [compound 112],92 µM
4,Ac-DEIVPC [compound 106],16 µM
5,CC[C@H](NC(=O)[C@@H](NC(=O)[C@@H](NC(=O)[C@H](CC(=O)O)NC(=O)[C@H](CC(=O)O)NC(C)=O)[C@@H](C)CC)C(C)C)C(=O)N[C@@H](CS)C(=O)O [compound 115] (Ac-DDIV[Abu]C-OH; C-terminus assumed),58 µM
6,Ac-DDIVLC [compound 116],16 µM
7,CC[C@H](C)[C@H](NC(=O)[C@H](CC(=O)O)NC(=O)[C@H](CC(=O)O)NC(C)=O)C(=O)N[C@H](C(=O)N1CCC[C@H]1C(=O)N[C@@H](CS)C(=O)O)C1CCCCC1 [compound 114] (Ac-DDI[Chg]PC-OH; C-terminus assumed),50 µM
8,Ac-DVIVPC [compound 107],85 µM
9,CC(=O)N[C@@H](CC(=O)O)C(=O)N[C@@H](CC(=O)O)C(=O)N[C@H](C(=O)N[C@H](C(=O)N1CCC[C@H]1C(=O)N[C@@H](CS)C(=O)O)C(C)C)C1CCCCC1 [compound 110] (Ac-DD[Chg]VPC-OH; C-terminus assumed),24 µM
10,CCC[C@H](NC(=O)[C@@H]1C[C@@H](OCc2ccccc2C)CN1C(=O)[C@@H](NC(=O)[C@@H](NC(=O)[C@H](CC(=O)O)NC(=O)[C@H](CC(=O)O)NC(C)=O)[C@@H](C)CC)C(C)C)C(=O)O [compound 204] (Ac-DDIV[Hyp](oXylylene)[Nva]-OH; C-terminus assumed),9.4 µM
11,Ac-DDIVAC [compound 120],76 µM
12,Ac-DDIVVC [compound 118],133 µM
13,CCC[C@H](NC(=O)[C@@H]1C[C@@H](OCc2cccc(C)c2)CN1C(=O)[C@@H](NC(=O)[C@@H](NC(=O)[C@H](CC(=O)O)NC(=O)[C@H](CC(=O)O)NC(C)=O)[C@@H](C)CC)C(C)C)C(=O)O [compound 205] (Ac-DDIV[Hyp](mXylylene)[Nva]-OH; C-terminus assumed),6.7 µM
14,Ac-DDIIPC [compound 113],56 µM
15,CCC[C@H](NC(=O)[C@@H]1CCCN1C(=O)[C@@H](NC(=O)[C@@H](NC(=O)[C@@H](NC(=O)[C@H](CC(=O)O)NC(C)=O)C(C)(C)C)[C@@H](C)CC)C(C)C)C(=O)O [compound 129] (Ac-D[Tle]IVP[Nva]-OH; C-terminus assumed),270 µM
16,Ac-DDVVPC [compound 109],80 µM
17,CCC[C@H](NC(=O)[C@@H]1C[C@@H](OCc2ccc(C)cc2)CN1C(=O)[C@@H](NC(=O)[C@@H](NC(=O)[C@H](CC(=O)O)NC(=O)[C@H](CC(=O)O)NC(C)=O)[C@@H](C)CC)C(C)C)C(=O)O [compound 206] (Ac-DDIV[Hyp](Meb)[Nva]-OH),6.4 µM
